Where “and” joins values, the source holds several entries; their conditions need not be identical. Equal values may be shown once.
What was measured:
Type in all cases: in vivo
corn seed Variety 1 = test: Internal concentration of glycine-betaine (mg/kg) in corn seed, Variety 1 female lines; conditions: for Percentage increase in internal GB concentration: versus plants treated with water
Description: (§1) To prevent auto-fertilization during the corn seed production, the male reproductive parts of the female line were removed prior to the time of pollen shed.
(§2) The commercial Greenstim® (Lallemand) formulation was sprayed to the female line leaves during grain development stage at the equivalent of 4 kg/hectare. Each repetition consists of 18 plants. Control plants were treated with water.
(§3) Seeds (200) were collected at maturity. Seeds were ground using a ball mill and extracted with ethanol. Samples were evaporated to dryness and dissolved in deuterium oxide (D20) (50 mg/ml). 1H-NMR analysis (Bruker, at 500 MHz) was performed using 3-(trimethylsilyl)-1-propane sulfonate sodium salt (DSS) as the internal standard. Values in ppm assigned to NMR signals are chemical shifts of the 9 protons which give the signal, for the glycine-betaine, at 3.251 ppm. A total of three extractions were performed on each sample.

[1] = system: corn seeds of the variety LG 32.58; test: Internal glycine-betaine concentration in corn seeds after foliar application, variety LG 32.58 (field trial, 1H-NMR)
Description: (§4) The field trial was performed with two different varieties of corn: the LG 32.58 variety and the Casey variety.
as §1
[…] Each repetition consists of 18 plants. Control plants were treated with water.
as §3

[2] = system: corn seeds of the variety Casey; test: Internal glycine-betaine concentration in corn seeds after foliar application, variety Casey (field trial, 1H-NMR); conditions: Greenstim sprayed on female line leaves at grain development stage, 4 kg/hectare, seeds collected at maturity, Rep 1-3, letter b differs from water control (p < 0.05)
Description: as §4, §1, §2, §3

corn seed = test: Effect of cold temperature on corn seed germination
Description: Two hundred seeds of each treatment (plants treated with water and plants treated with glycine-betaine) were planted onto moistened sand. Samples were placed into a germination chamber at 10° C. for a period of 7 days. Samples were then transferred to a germination chamber set to 25° C. for 5 days. The experiment was conducted with a variety of seeds with increased cold tolerance compared to more traditional seed varieties. The germination rate of standard seeds after a cold germination test is between 50 to 70%.

C[N+](C)(C)CC(=O)[O-] [GB, N,N,N-trimethylglycine]
Internal concentration of glycine-betaine in corn seed, Mean GB (plants treated with GB) (corn seed Variety 1; Variety 1-female 1, Rep 1): 6.67 mg/kg | Percentage increase in internal GB concentration (corn seed Variety 1; Variety 1-female 1, Rep 1): 53% | Internal concentration of glycine-betaine in corn seed, Mean GB (plants treated with GB) (corn seed Variety 1; Variety 1-female 2, Rep 2): 5.19 mg/kg | Percentage increase in internal GB concentration (corn seed Variety 1; Variety 1-female 2, Rep 2): 1135% | Internal concentration of glycine-betaine in corn seed, Mean GB (plants treated with GB) (corn seed Variety 1; Variety 1-female 3, Rep 3): 6.89 mg/kg | Percentage increase in internal GB concentration (corn seed Variety 1; Variety 1-female 3, Rep 3): 15% | GB concentration, GB (plants treated with GB) ([1]; corn variety LG 32.58, Greenstim sprayed on female line leaves at grain development stage, 4 kg/hectare, seeds collected at maturity, Rep 1-3, letter b differs from water control (p < 0.05)): 41.18b μg · g^−1 MS and 37.71b μg · g^−1 MS and 38.53b μg · g^−1 MS | Internal glycine-betaine content of the seeds compared to untreated seeds ([1]; summary of Tables 1 to 4, plants sprayed at the flowering stage): significantly higher | GB concentration, GB (plants treated with GB) [2]: 79.19b μg · g^−1 MS and 79.33b μg · g^−1 MS and 83.91b μg · g^−1 MS | Seed germination percentage (plants treated with GB) (corn seed; Variety-female 3, 200 seeds on moistened sand, 10° C. for 7 days then 25° C. for 5 days): 86.61 | Percentage increase in germination (corn seed; Variety-female 3, after cold treatment, versus seeds from plants treated with water): 2.1% | Seed germination percentage after cold treatment compared with untreated seeds (corn seed; summary of Table 5, seeds with increased internal content of glycine-betaine): significantly better seed germination percentage

From patent US20210169077A1, “METHOD FOR IMPROVING SEED GERMINATION AND/OR PLANT TOLERANCE TO ENVIRONMENTAL STRESS” (DANSTAR FERMENT AG, priority 2017, published 2021)
